These results are taken from patent publication US20160067255A1, “METHODS OF TREATING OR PREVENTING HIV IN PATIENTS USING A COMBINATION OF TENOFOVIR ALAFENAMIDE AND DOLUTEGRAVIR” (priority 2014, published 2016).

The series in a line: Oral pharmacokinetics of TAF alone or in combination with dolutegravir in male beagle dogs (plasma, LC/MS). To be noted: dog; for half-life: T1/2 (estimated terminal elimination half-life). As for the experimental part: TAF was dosed at 5 mg/kg (as free base) orally in solution to fasted male beagle dogs (N=6 animals, mean weight 10 kg). On Day 1, TAF was administered alone. On days 2, 3, 4 and 5, 3 mg/kg of Dolutegravir (DTG) was administered alone (as free acid). Both compounds were administered on Day 6. The plasma pharmacokinetic profiles of TAF and its nucleotide metabolite tenofovir (TFV) were determined by LC/MS in samples taken on Day 1 and Day 6 of dosing.
The oral dosing formulation for TAF was 0.1% Hydroxypropylmethylcellulose K100LV, 0.1% Polysorbate 20, 99.8% deionized water. For dolutegravir, the oral dosing formulation was 0.5% Hydroxypropylmethylcellulose LV 100 and 0.1% Tween 20 in deionized water.
The animals were fasted overnight prior to each dose administration and up to 4 hr after dosing. The blood samples were collected on days 1 and 6 predose and at the following time points following dosing: 0.25, 0.5, 1, 2, 4, 6, 8, 12 and 24 hour. The blood samples were collected into Vacutainer™ tubes containing Sodium Fluoride/Potassium Oxalate (BD Biosciences). The blood samples were centrifuged at 4° C. to separate plasma. Plasma samples were frozen and stored in −70° C. freezers.
Plasma was prepared by protein precipitation by adding acetonitrile to a final concentration of 70% in the presence of internal standard. Following filtration to remove precipitated protein, samples were evaporated, reconstituted with mobile phase A (0.2% formate in water) and analyzed using injections of 5 μl for analysis.

Where [1] appears, read: Day 6 (TAF + DTG) versus Day 1 (TAF alone).
[2] abbreviates: male, beagle, in vivo, po, 5 mg/kg, TAF in plasma, Day 1, TAF 5 mg/kg oral alone, fasted male beagle dogs, mean n=6.
Where [3] appears, read: male, beagle, in vivo, po, 5 mg/kg, TAF in plasma, Day 6, TAF 5 mg/kg oral co-administered with DTG 3 mg/kg after 4 daily doses of DTG, male beagle dogs, mean n=6.
Where [4] appears, read: male, beagle, in vivo, po, 5 mg/kg.

Regarding `CC(C)OC(=O)[C@H](C)N[P@](=O)(CO[C@H](C)Cn1cnc2c(N)ncnc21)Oc1ccccc1` [TAF, 9-[(R)-2-[[(S)-[[(S)-1-(isopropoxycarbonyl)ethyl]amino]phenoxyphosphinyl]-methoxy]propyl]adenine], under setting [1], the “increase of maximal concentrations (Cmax) of TAF upon coadministration with DTG” value was “approximately 2 fold” and the “increase of oral exposure of TAF upon coadministration with DTG” value was “approximately 2 fold”. The AUC(0-t) (male, beagle, in vivo, po, 5 mg/kg, AUC0-24hr, TAF in plasma, Day 1, TAF 5 mg/kg oral alone, fasted male beagle dogs, mean n=6) turned out to be 0.174 µM·h. Further, the AUC(0-t) (male, beagle, in vivo, po, 5 mg/kg, AUC0-24hr, TAF in plasma, Day 6, TAF 5 mg/kg oral co-administered with DTG 3 mg/kg after 4 daily doses of DTG, male beagle dogs, mean n=6) was 0.345 µM·h. Under setting [2], the Cmax came out at 412 nM, the half-life was 11.4 min and the Tmax was 17.4 min. For the same molecule, under setting [3], the Cmax was 818 nM and the time to peak (Tmax) came out at 15 min.
Consider `C[C@H](Cn1cnc2c(N)ncnc21)OCP(=O)(O)O` [TFV, Tenofovir], for which the “TFV levels in Day 1 pre-dose plasma samples” value (male, beagle, in vivo) is on record as less than 10 nM. For the same molecule, under setting [4], the AUC(0-t) stood at 1.6 µM·h, the concentration peaked (Cmax) at 253 nM, the half-life is 1500 min and the Tmax is 75 min. The molecule also had an AUC(0-inf) (male, beagle, in vivo, po, 5 mg/kg, AUC0-inf) of 2.92 µM·h.
